How the values were obtained:
VIOTR = assay: Pre-emergence action at 320 g/ha against VIOTR; assay type: in vivo, Viola tricolor; settings: dosage 320 g/ha
Outline: (§1)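 Effect rated visually (% vs untreated control) about 3 weeks after pre-emergence spraying of WP/EC formulation onto soil; spray carried 0.5% additive at 600 l/ha water.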

AMARE [1] = assay: Pre-emergence action at 320 g/ha against AMARE; assay type: in vivo, Amaranthus retroflexus; settings: visual scoring after about 3 weeks vs untreated controls
Outline: as §1

AMARE [2] = assay: Post-emergence action against AMARE, 1.28 kg/ha; assay type: in vivo, Amaranthus retroflexus; settings: dosage 1280 g/ha, visual rating about 3 weeks after treatment vs untreated controls (100% = plants died)
Outline: (§2)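 Post-emergence greenhouse spray, one-leaf stage (2–3 wk after sowing), sandy loam. WP/EC, aqueous + 0.5% additive, 600 L/ha water. Visual % activity vs untreated, ~3 wk after treatment; 100% = plants dead.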

KCHSC [3] = assay: Post-emergence action against KCHSC, 1.28 kg/ha; assay type: in vivo, Bassia scoparia; settings: dosage 1280 g/ha, visual rating about 3 weeks after treatment vs untreated controls (100% = plants died)
Outline: as §2

MATIN [4] = assay: Pre-emergence action at 320 g/ha against MATIN; assay type: in vivo, Tripleurospermum inodorum (Matricaria inodora); settings: visual scoring after about 3 weeks vs untreated controls
Outline: as §1

ECHCG [5] = assay: Post-emergence action against ECHCG, 1.28 kg/ha; assay type: in vivo, Echinochloa crus-galli; settings: dosage 1280 g/ha, visual rating about 3 weeks after treatment vs untreated controls
Outline: as §2

LOLRI [6] = assay: Post-emergence action against LOLRI, 1.28 kg/ha; assay type: in vivo, Lolium rigidum; settings: dosage 1280 g/ha, visual rating about 3 weeks after treatment vs untreated controls
Outline: as §2

ALOMY [7] = assay: Pre-emergence action at 320 g/ha against ALOMY; assay type: in vivo, Alopecurus myosuroides; settings: scored visually after about 3 weeks vs untreated controls (100% = plants have died)
Outline: as §1

ALOMY [8] = assay: Post-emergence action against ALOMY, 1.28 kg/ha; assay type: in vivo, Alopecurus myosuroides; settings: dosage 1280 g/ha, visual rating about 3 weeks after treatment vs untreated controls
Outline: as §2

AMARE [9] = assay: Pre-emergence action against AMARE, 1280 g/ha; assay type: in vivo, Amaranthus retroflexus; settings: scored visually after about 3 weeks vs untreated controls (100% = plants have died)
Outline: (§3)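 Compound applied as WP or EC in aqueous spray (0.5% additive, 600 L/ha) to the surface of sandy loam covering freshly sown seeds. After about 3 weeks under good greenhouse conditions, damage is given as visual percentage, 100% meaning plant death.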

ABUTH [10] = assay: Pre-emergence action against ABUTH, 1280 g/ha; assay type: in vivo, Abutilon theophrasti; settings: scored visually after about 3 weeks vs untreated controls (100% = plants have died)
From the text: 1. Pre-Emergence Herbicidal Effect and Crop Plant Compatibility a) Seeds of mono- and dicotyledonous weed plants are placed in plastic pots in sandy loam soil (doubly sown with one species each of mono- or dicotyledonous weed plants per pot) and covered with soil. The compounds of the invention, formulated in the form of wettable powders (WP) or as emulsion concentrates (EC), are then applied onto the surface of the covering soil as aqueous suspension or emulsion with addition of 0.5% additive at a water application rate equivalent to 600 litres per hectare. After the treatment, the pots are placed in a greenhouse and kept under good growth conditions for the trial plants. After about 3 weeks, the effect of the preparations is scored visually in comparison with untreated controls as percentages. For example, 100% activity=the plants have died, 0% activity=like control plants. 1. Pre-Emergence Effectiveness Tables 1 to 12 below show the effects of selected compounds of the general formula (I) according to Tables 1 and 2 on various harmful plants and at an application rate corresponding to 1280 g/ha, which were obtained by the experimental procedure mentioned above.

ALOMY [11] = assay: Pre-emergence action against ALOMY, 1280 g/ha; assay type: in vivo, Alopecurus myosuroides; settings: visual scoring after about 3 weeks vs untreated controls, 100% = plants have died, 0% = like control plants
Outline: as §3

SETVI [12] = assay: Pre-emergence action against SETVI, 1280 g/ha; assay type: in vivo, Setaria viridis; settings: visual scoring after about 3 weeks vs untreated controls, 100% = plants have died, 0% = like control plants
Outline: as §3

POAAN [13] = assay: Pre-emergence action against POAAN, 1280 g/ha; assay type: in vivo, Poa annua; settings: visual scoring after about 3 weeks vs untreated controls, 100% = plants have died, 0% = like control plants
Outline: as §3

POLCO = assay: Pre-emergence action at 320 g/ha against POLCO; assay type: in vivo, Fallopia convolvulus (Polygonum convolvulus); settings: visual scoring after about 3 weeks vs untreated controls
Outline: as §1

ECHCG [14] = assay: Pre-emergence action against ECHCG, 1280 g/ha; assay type: in vivo, Echinochloa crus-galli; settings: visual scoring after about 3 weeks vs untreated controls, 100% = plants have died, 0% = like control plants
Outline: as §3

VERPE [15] = assay: Pre-emergence action at 320 g/ha against VERPE; assay type: in vivo, Veronica persica; settings: visual scoring after about 3 weeks vs untreated controls
Outline: as §1

STEME [16] = assay: Pre-emergence action against STEME, 1280 g/ha; assay type: in vivo, Stellaria media; settings: scored visually after about 3 weeks vs untreated controls (100% = plants have died)
Outline: as §3

VERPE [17] = assay: Post-emergence action against VERPE, 1.28 kg/ha; assay type: in vivo, Veronica persica; settings: dosage 1280 g/ha, visual rating about 3 weeks after treatment vs untreated controls (100% = plants died)
Outline: as §2

POAAN [18] = assay: Post-emergence action against POAAN, 1.28 kg/ha; assay type: in vivo, Poa annua; settings: dosage 1280 g/ha, visual rating about 3 weeks after treatment vs untreated controls
Outline: as §2

ABUTH [19] = assay: Post-emergence action against ABUTH, 1.28 kg/ha; assay type: in vivo, Abutilon theophrasti; settings: dosage 1280 g/ha, visual rating about 3 weeks after treatment vs untreated controls (100% = plants died)
Outline: as §2

LOLRI [20] = assay: Pre-emergence action at 320 g/ha against LOLRI; assay type: in vivo, Lolium rigidum; settings: visual scoring after about 3 weeks vs untreated controls
Outline: as §1

DIGSA [21] = assay: Pre-emergence action against DIGSA, 1280 g/ha; assay type: in vivo, Digitaria sanguinalis; settings: visual scoring after about 3 weeks vs untreated controls, 100% = plants have died, 0% = like control plants
Outline: as §3

SETVI [22] = assay: Pre-emergence action at 320 g/ha against SETVI; assay type: in vivo, Setaria viridis; settings: visual scoring after about 3 weeks vs untreated controls
Outline: as §1

AVEFA = assay: Pre-emergence action at 320 g/ha against AVEFA; assay type: in vivo; settings: visual scoring after about 3 weeks vs untreated controls
Outline: as §1

STEME [23] = assay: Post-emergence action against STEME, 1.28 kg/ha; assay type: in vivo, Stellaria media; settings: dosage 1280 g/ha, visual rating about 3 weeks after treatment vs untreated controls (100% = plants died)
Outline: as §2

SETVI [24] = assay: Post-emergence action against SETVI, 1.28 kg/ha; assay type: in vivo, Setaria viridis; settings: dosage 1280 g/ha, visual rating about 3 weeks after treatment vs untreated controls
Outline: as §2

MATIN [25] = assay: Pre-emergence action against MATIN, 1280 g/ha; assay type: in vivo, Tripleurospermum inodorum (Matricaria inodora); settings: scored visually after about 3 weeks vs untreated controls (100% = plants have died)
Outline: as §3

ECHGC = assay: Pre-emergence action at 320 g/ha against ECHGC; assay type: in vivo, Echinochloa crus-galli; settings: visual scoring after about 3 weeks vs untreated controls
From the text: b) Seeds of monocotyledonous and dicotyledonous weed plants and crop plants are placed in plastic or organic planting pots and covered with soil. The compounds of the invention, formulated in the form of wettable powders (WP) or as emulsion concentrates (EC), are then applied onto the surface of the covering soil as aqueous suspension or emulsion with addition of 0.5% additive at a water application rate of 600 l/ha (converted). After the treatment, the pots are placed in a greenhouse and kept under good growth conditions for the trial plants. After about 3 weeks, the effect of the preparations is scored visually in comparison with untreated controls as percentages. For example, 100% activity=the plants have died, 0% activity=like control plants. Tables 13 to 26 below show the effects of selected compounds of the general formula (I) on various harmful plants and at an application rate corresponding to 320 g/ha, which were obtained by the experimental procedure mentioned above.

DIGSA [26] = assay: Post-emergence action against DIGSA, 1.28 kg/ha; assay type: in vivo, Digitaria sanguinalis; settings: dosage 1280 g/ha, visual rating about 3 weeks after treatment vs untreated controls
Outline: as §2

MATIN [27] = assay: Post-emergence action against MATIN, 1.28 kg/ha; assay type: in vivo, Tripleurospermum inodorum (Matricaria inodora); settings: dosage 1280 g/ha, visual rating about 3 weeks after treatment vs untreated controls (100% = plants died)
Outline: as §2

KCHSC [28] = assay: Pre-emergence action against KCHSC, 1280 g/ha; assay type: in vivo, Bassia scoparia; settings: scored visually after about 3 weeks vs untreated controls (100% = plants have died)
Outline: as §3

LOLRI [29] = assay: Pre-emergence action against LOLRI, 1280 g/ha; assay type: in vivo, Lolium rigidum; settings: visual scoring after about 3 weeks vs untreated controls, 100% = plants have died, 0% = like control plants
Outline: as §3

VERPE [30] = assay: Pre-emergence action against VERPE, 1280 g/ha; assay type: in vivo, Veronica persica; settings: scored visually after about 3 weeks vs untreated controls (100% = plants have died)
Outline: as §3

DIGSA [31] = assay: Pre-emergence action at 320 g/ha against DIGSA; assay type: in vivo, Digitaria sanguinalis; settings: visual scoring after about 3 weeks vs untreated controls
Outline: as §1

O=C(COc1nn(-c2ccccc2F)c(-c2ccc(F)nc2)c1Br)OCCCl [VII-108]
Pre-emergence action against VIOTR in % (VIOTR): 100% | Pre-emergence action against AMARE in % (AMARE [1]): 100% | Post-emergence action against AMARE (AMARE [2]): 100% | Post-emergence action against KCHSC (KCHSC [3]): 90% | Pre-emergence action against MATIN in % (MATIN [4]): 100% | Post-emergence action against ECHCG (ECHCG [5]): 100% | Post-emergence action against LOLRI (LOLRI [6]): 100% | Pre-emergence action at 320 g/ha against ALOMY in % (ALOMY [7]): 100% | Post-emergence action against ALOMY (ALOMY [8]): 100% | Pre-emergence action against AMARE (AMARE [9]): 100% | Pre-emergence action against ABUTH (ABUTH [10]): 90% | Pre-emergence action against ALOMY (ALOMY [11]): 100% | Pre-emergence action against SETVI (SETVI [12]): 100% | Pre-emergence action against POAAN (POAAN [13]): 100% | Pre-emergence action against POLCO in % (POLCO): 100% | Pre-emergence action against ECHCG (ECHCG [14]): 100% | Pre-emergence action against VERPE in % (VERPE [15]): 100% | Pre-emergence action against STEME (STEME [16]): 100% | Post-emergence action against VERPE (VERPE [17]): 100% | Post-emergence action against POAAN (POAAN [18]): 100% | Post-emergence action against ABUTH (ABUTH [19]): 90% | Pre-emergence action against LOLRI in % (LOLRI [20]): 100% | Pre-emergence action against DIGSA (DIGSA [21]): 100% | Pre-emergence action against SETVI in % (SETVI [22]): 100% | Pre-emergence action against AVEFA in % (AVEFA): 80% | Post-emergence action against STEME (STEME [23]): 100% | Post-emergence action against SETVI (SETVI [24]): 90% | Pre-emergence action against MATIN (MATIN [25]): 100% | Pre-emergence action against ECHGC in % (ECHGC): 100% | Post-emergence action against DIGSA (DIGSA [26]): 100% | Post-emergence action against MATIN (MATIN [27]): 100% | Pre-emergence action against KCHSC (KCHSC [28]): 90% | Pre-emergence action against LOLRI (LOLRI [29]): 100% | Pre-emergence action against VERPE (VERPE [30]): 100% | Pre-emergence action against DIGSA in % (DIGSA [31]): 100%

COC(=O)[C@@H](C)Oc1nn(-c2ccccc2F)c(-c2ccc(F)nc2)c1Br [VII-123-a]
Post-emergence action against AMARE (AMARE [2]): 90% | Post-emergence action against KCHSC (KCHSC [3]): 90% | Post-emergence action against ECHCG (ECHCG [5]): 100% | Post-emergence action against LOLRI (LOLRI [6]): 100% | Post-emergence action against ALOMY (ALOMY [8]): 100% | Pre-emergence action against AMARE (AMARE [9]): 100% | Pre-emergence action against ABUTH (ABUTH [10]): 90% | Pre-emergence action against ALOMY (ALOMY [11]): 100% | Pre-emergence action against SETVI (SETVI [12]): 100% | Pre-emergence action against POAAN (POAAN [13]): 100% | Pre-emergence action against ECHCG (ECHCG [14]): 100% | Pre-emergence action against STEME (STEME [16]): 100% | Post-emergence action against VERPE (VERPE [17]): 90% | Post-emergence action against POAAN (POAAN [18]): 100% | Post-emergence action against ABUTH (ABUTH [19]): 90% | Pre-emergence action against DIGSA (DIGSA [21]): 100% | Post-emergence action against STEME (STEME [23]): 100% | Post-emergence action against SETVI (SETVI [24]): 100% | Pre-emergence action against MATIN (MATIN [25]): 100% | Post-emergence action against MATIN (MATIN [27]): 90% | Pre-emergence action against KCHSC (KCHSC [28]): 100% | Pre-emergence action against LOLRI (LOLRI [29]): 100% | Pre-emergence action against VERPE (VERPE [30]): 100%

Reference: patent US12180187B2, “1-phenyl-5-azinylpyrazolyl-3-oxyalkyl acids and their use for controlling unwanted plant growth” (BAYER AKTIENGESELLSCHAFT, priority 2019, dated 2024)
